Experimental data as given in patent US9796711B2, “Substituted pyrazolo[3,4-b]pyridin-6-carboxylic acids and method of use” (AbbVie S.àr.l., priority 2015, dated 2017).
pEC50: −log10 of the molar value.

Key:
[1] = target: T1, ΔF508-CFTR (Homo sapiens, UniProt P13569, DEL508-508); test: CFTR cell surface levels using HRP-tagged ΔF508-CFTR expressing CFBE cells, intrinsic corrector capacity; assay type: cell-based; conditions: HRP-tagged ΔF508-CFTR CFBE41o- cells, compounds alone (intrinsic corrector capacity), 20 hours at 33° C.; for % Activation: positive control 3 μM corrector; for pEC50: read-out: EC50
T1 construct: host or cells: CFBE41o-, doxycycline-inducible
T1 sequence (P13569 with tags, fused parts or gaps DEL508-508): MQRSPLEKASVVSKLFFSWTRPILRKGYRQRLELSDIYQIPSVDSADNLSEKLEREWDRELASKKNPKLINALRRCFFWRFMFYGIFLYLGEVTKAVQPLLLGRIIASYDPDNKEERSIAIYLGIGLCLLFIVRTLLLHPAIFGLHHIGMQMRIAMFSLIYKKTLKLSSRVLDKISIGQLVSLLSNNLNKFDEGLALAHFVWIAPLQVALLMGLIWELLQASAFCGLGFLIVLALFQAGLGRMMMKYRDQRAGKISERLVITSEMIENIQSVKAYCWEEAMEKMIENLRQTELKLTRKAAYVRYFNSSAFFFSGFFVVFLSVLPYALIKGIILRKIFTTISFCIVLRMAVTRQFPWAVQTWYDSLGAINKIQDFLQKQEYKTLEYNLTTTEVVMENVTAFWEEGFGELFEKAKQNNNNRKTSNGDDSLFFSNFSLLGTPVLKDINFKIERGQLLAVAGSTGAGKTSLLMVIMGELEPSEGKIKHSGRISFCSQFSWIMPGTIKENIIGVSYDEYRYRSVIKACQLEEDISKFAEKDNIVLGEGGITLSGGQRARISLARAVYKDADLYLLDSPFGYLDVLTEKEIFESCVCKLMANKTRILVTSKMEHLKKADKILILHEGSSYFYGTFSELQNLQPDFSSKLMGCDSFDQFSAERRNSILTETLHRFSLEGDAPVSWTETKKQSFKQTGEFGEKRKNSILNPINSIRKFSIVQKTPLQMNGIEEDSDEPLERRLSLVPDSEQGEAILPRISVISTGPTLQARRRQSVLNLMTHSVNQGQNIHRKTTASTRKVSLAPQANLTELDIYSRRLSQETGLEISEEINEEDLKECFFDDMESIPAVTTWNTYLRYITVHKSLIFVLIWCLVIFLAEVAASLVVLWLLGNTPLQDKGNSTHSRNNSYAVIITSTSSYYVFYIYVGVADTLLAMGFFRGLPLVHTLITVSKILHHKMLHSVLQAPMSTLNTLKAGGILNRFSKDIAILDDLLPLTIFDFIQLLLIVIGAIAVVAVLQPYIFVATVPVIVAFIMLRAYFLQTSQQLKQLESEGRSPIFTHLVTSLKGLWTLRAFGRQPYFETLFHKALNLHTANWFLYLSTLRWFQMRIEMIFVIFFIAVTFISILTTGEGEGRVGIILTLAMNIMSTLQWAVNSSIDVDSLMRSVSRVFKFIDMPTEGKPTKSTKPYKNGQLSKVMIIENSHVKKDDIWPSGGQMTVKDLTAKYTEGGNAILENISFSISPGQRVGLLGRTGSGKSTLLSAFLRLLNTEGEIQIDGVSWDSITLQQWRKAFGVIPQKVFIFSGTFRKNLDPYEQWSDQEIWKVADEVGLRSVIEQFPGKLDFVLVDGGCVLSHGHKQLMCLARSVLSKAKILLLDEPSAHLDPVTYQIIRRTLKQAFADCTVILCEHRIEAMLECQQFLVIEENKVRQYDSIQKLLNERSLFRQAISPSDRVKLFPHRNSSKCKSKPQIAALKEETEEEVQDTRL
How it was run: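 Here the cells express ΔF508-CFTR with horseradish peroxidase inserted in extracellular loop 4, so only rescued channel at the surface gives luminescent signal. Compounds act on their own, 20 h at the reduced temperature of 33 °C; values are percent activity relative to DMSO and a 3 μM corrector.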

[2] = target: T1, ΔF508-CFTR; test: CFTR cell surface levels using HRP-tagged ΔF508-CFTR expressing CFBE cells, in the presence of a co-corrector; assay type: cell-based; conditions: HRP-tagged ΔF508-CFTR expressing CFBE cells, in the presence of 3 μM co-corrector; for pEC50: read-out: EC50
How it was run: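 Cells were seeded with 0.5 μg/mL doxycycline and held 68 h at 37 °C. Test compounds plus 3 μM co-corrector (final 0.1% DMSO) were then added for 20 h at 33 °C. Washed cells received HRP substrate, and luminescence was normalized between DMSO and 3 μM co-corrector controls.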

SMILES	% Activation [1] [%]	pEC50 [1]	% Activation [2] [%]	pEC50 [2]
Cc1nn(-c2ccccc2)c2nc(C(=O)O)cc(-c3ccc(NC4COC4)cc3)c12 [compound 112, 3-methyl-4-{4-[(oxetan-3-yl)amino]phenyl}-1-phenyl-1H-pyrazolo[3,4-b]pyridine-6-carboxylic acid]	200.55	5.61	378.1	5.62
Cc1nn(-c2ccccc2)c2nc(C(=O)O)cc(-c3ccc(N4CC(C)OC(C)C4)cc3)c12 (stereo not drawn) [compound 114, 4-[4-(2,6-dimethylmorpholin-4-yl)phenyl]-3-methyl-1-phenyl-1H-pyrazolo[3,4-b]pyridine-6-carboxylic acid]	251.05	6.09	460.85	5.91
Cc1nn(-c2ccccc2)c2nc(C(=O)O)cc(-c3ccc(N(C)C4CCC4)cc3)c12 [compound 115, 4-{4-[cyclobutyl(methyl)amino]phenyl}-3-methyl-1-phenyl-1H-pyrazolo[3,4-b]pyridine-6-carboxylic acid]	152.3	5.73	354	5.89
Cc1nn(-c2ccccc2)c2nc(C(=O)O)cc(-c3ccc(N4C[C@@H](O)[C@H](O)C4)cc3)c12 [compound 116, 4-{4-[(3R,4R)-3,4-dihydroxypyrrolidin-1-yl]phenyl}-3-methyl-1-phenyl-1H-pyrazolo[3,4-b]pyridine-6-carboxylic acid]	81.72	5.48	262.7	5.48
CC(C)c1nn(C2CCN(CC(F)(F)F)CC2)c2nc(C(=O)O)cc(-c3ccc(N4CCOCC4)cc3)c12 [compound 117, 4-[4-(morpholin-4-yl)phenyl]-3-(propan-2-yl)-1-[1-(2,2,2-trifluoroethyl)piperidin-4-yl]-1H-pyrazolo[3,4-b]pyridine-6-carboxylic acid]	70.77	5.96	229.45	6.12
Cc1nn(-c2ccccc2)c2nc(C(=O)O)cc(N3CCOCC3)c12 [compound 118, 3-methyl-4-(morpholin-4-yl)-1-phenyl-1H-pyrazolo[3,4-b]pyridine-6-carboxylic acid]	26.575	5.18	165.25	5.48
Cc1nn(-c2ccccc2)c2nc(C(=O)O)cc(-c3ccc(N4CCOC(C)(C)C4)cc3)c12 [compound 119, 4-[4-(2,2-dimethylmorpholin-4-yl)phenyl]-3-methyl-1-phenyl-1H-pyrazolo[3,4-b]pyridine-6-carboxylic acid]	207.25	6.04	413.2	6.20
CC(C)c1nn(C2CCOC2)c2nc(C(=O)O)cc(-c3ccc(N4CCOCC4)cc3)c12 (stereo not drawn) [compound 120, 4-[4-(morpholin-4-yl)phenyl]-1-(oxolan-3-yl)-3-(propan-2-yl)-1H-pyrazolo[3,4-b]pyridine-6-carboxylic acid]	70.235	5.48	231.45	5.50
CC(C)c1nn(-c2cccc(N3CCOCC3)c2)c2nc(C(=O)O)cc(-c3ccc(N4CCOCC4)cc3)c12 [compound 121, 1-[3-(morpholin-4-yl)phenyl]-4-[4-(morpholin-4-yl)phenyl]-3-(propan-2-yl)-1H-pyrazolo[3,4-b]pyridine-6-carboxylic acid]	401.5	6.28	603.1	6.12
Cc1nn(-c2ccccc2)c2nc(C(=O)O)cc(-c3ccc(N4CC(O)C4)cc3)c12 [compound 124, 4-[4-(3-hydroxyazetidin-1-yl)phenyl]-3-methyl-1-phenyl-1H-pyrazolo[3,4-b]pyridine-6-carboxylic acid]	190.5	5.51	371.1	5.72
Cc1nn(-c2ccccc2)c2nc(C(=O)O)cc(-c3ccc(N4CC5(COC5)C4)cc3)c12 [compound 126, 3-methyl-4-[4-(2-oxa-6-azaspiro[3.3]heptan-6-yl)phenyl]-1-phenyl-1H-pyrazolo[3,4-b]pyridine-6-carboxylic acid]	156.45	5.77	319.25	6.08
Cc1nn(-c2ccccc2)c2nc(C(=O)O)cc(-c3ccc(N4C[C@@H]5C[C@H]4CO5)cc3)c12 [compound 127, 3-methyl-4-{4-[(1S,4S)-2-oxa-5-azabicyclo[2.2.1]heptan-5-yl]phenyl}-1-phenyl-1H-pyrazolo[3,4-b]pyridine-6-carboxylic acid]	221.4	5.75	401.3	6.14
Cc1nn(-c2ccccc2)c2nc(C(=O)O)cc(C3=CCOCC3)c12 [compound 128, 4-(3,6-dihydro-2H-pyran-4-yl)-3-methyl-1-phenyl-1H-pyrazolo[3,4-b]pyridine-6-carboxylic acid]	33.92	5.48	175.85	5.48
CC1(c2nn(-c3ccccc3)c3nc(C(=O)O)cc(-c4ccc(N5CCOCC5)cc4)c23)CC1 [compound 129, 3-(1-methylcyclopropyl)-4-[4-(morpholin-4-yl)phenyl]-1-phenyl-1H-pyrazolo[3,4-b]pyridine-6-carboxylic acid]	178.3	6.38	380	6.41
CN(C)c1ccc(-c2cc(C(=O)O)nc3c2c(C(C)(C)C)nn3C2CCCCC2)cc1 [compound 131, 3-tert-butyl-1-cyclohexyl-4-[4-(dimethylamino)phenyl]-1H-pyrazolo[3,4-b]pyridine-6-carboxylic acid]	153.75	6.05	388.7	6.21
CC(=O)N1CCN(c2cc(C(=O)O)nc3c2c(C)nn3-c2ccccc2)CC1 [compound 132, 4-(4-acetylpiperazin-1-yl)-3-methyl-1-phenyl-1H-pyrazolo[3,4-b]pyridine-6-carboxylic acid]	13.45	< 5.00	156.4	5.48
Cc1nn(-c2ccccc2)c2nc(C(=O)O)cc(-c3ccc(N4CCOC(CO)C4)cc3)c12 (stereo not drawn) [compound 133, 4-{4-[2-(hydroxymethyl)morpholin-4-yl]phenyl}-3-methyl-1-phenyl-1H-pyrazolo[3,4-b]pyridine-6-carboxylic acid]	74.96	5.48	280.3	5.48
Cc1nn(-c2ccccc2)c2nc(C(=O)O)cc(-c3ccc(N4CC5CCC(C4)O5)cc3)c12 [compound 134, 3-methyl-4-[4-(8-oxa-3-azabicyclo[3.2.1]octan-3-yl)phenyl]-1-phenyl-1H-pyrazolo[3,4-b]pyridine-6-carboxylic acid]	153.25	6.01	362.2	6.25
Cc1nn(-c2ccccc2)c2nc(C(=O)O)cc(-c3ccc(N4CCC4)cc3)c12 [compound 135, 4-[4-(azetidin-1-yl)phenyl]-3-methyl-1-phenyl-1H-pyrazolo[3,4-b]pyridine-6-carboxylic acid]	165.1	5.66	355.55	5.84
Cc1nn(-c2ccccc2)c2nc(C(=O)O)cc(N3CCN(CC#N)CC3)c12 [compound 136, 4[4-(cyanomethyl)piperazin-1-yl]-3-methyl-1-phenyl-1H-pyrazolo[3,4-b]pyridine-6-carboxylic acid]	40.405	5.48	189.95	5.48
Cc1nn(-c2ccccc2)c2nc(C(=O)O)cc(N3CCC(O)CC3)c12 [compound 137, 4-(4-hydroxypiperidin-1-yl)-3-methyl-1-phenyl-1H-pyrazolo[3,4-b]pyridine-6-carboxylic acid]	27.985	< 5.00	158.05	5.48
CC(=O)N1CCC(c2cc(C(=O)O)nc3c2c(C)nn3-c2ccccc2)CC1 [compound 138, 4-(1-acetylpiperidin-4-yl)-3-methyl-1-phenyl-1H-pyrazolo[3,4-b]pyridine-6-carboxylic acid]	12.11	< 5.00	133.3	< 5.00
Cc1nn(-c2ccccc2)c2nc(C(=O)O)cc(C3CCN(CC#N)CC3)c12 [compound 139, 4-[1-(cyanomethyl)piperidin-4-yl]-3-methyl-1-phenyl-1H-pyrazolo[3,4-b]pyridine-6-carboxylic acid]	−0.041	< 5.00	104.1	< 5.00
Cc1nn(-c2ccccc2)c2nc(C(=O)O)cc(-c3ccc(N(C)C4COC4)cc3)c12 [compound 140, 3-methyl-4-{4-[methyl(oxetan-3-yl)amino]phenyl}-1-phenyl-1H-pyrazolo[3,4-b]pyridine-6-carboxylic acid]	178	5.82	362.05	6.03
